Experiments:
Test in all cases: relative viability (nuclei count vs DMSO), 5 days (fraction); higher = more cells survive
Doramapimod + Foretinib = compound: Cc1ccc(-n2nc(C(C)(C)C)cc2NC(=O)Nc2ccc(OCCN3CCOCC3)c3ccccc23)cc1 [Doramapimod] + COc1cc2c(Oc3ccc(NC(=O)C4(C(=O)Nc5ccc(F)cc5)CC4)cc3F)ccnc2cc1OCCCN1CCOCC1 [Foretinib] (partner 0.25 µM)
Procedure, shortened: (§1)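 Values are medians from duplicate plates. Each reflects relative viability, defined as the nuclei count of treated wells over that of vehicle wells. Lung cancer cell lines in 1536-well plates were pin-tool dosed one day after seeding with one drug alone or with a fixed anchor-drug dose plus five library-drug doses (not always all listed) in √10 steps, then fixed, stained and imaged at 4× after 5 days.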

Doramapimod + Pemetrexed = compound: Cc1ccc(-n2nc(C(C)(C)C)cc2NC(=O)Nc2ccc(OCCN3CCOCC3)c3ccccc23)cc1 [Doramapimod] + Nc1nc2[nH]cc(CCc3ccc(C(=O)N[C@@H](CCC(=O)O)C(=O)O)cc3)c2c(=O)[nH]1 [Pemetrexed] (partner 0.2 µM)
Procedure, shortened: as §1

RAF265 + Dasatinib = compound: Cn1c(Nc2ccc(C(F)(F)F)cc2)nc2cc(Oc3ccnc(-c4ncc(C(F)(F)F)[nH]4)c3)ccc21 [RAF265] + Cc1nc(Nc2ncc(C(=O)Nc3c(C)cccc3Cl)s2)cc(N2CCN(CCO)CC2)n1 [Dasatinib] (partner 0.075 µM)
Procedure, shortened: as §1

RAF265 + Pemetrexed = compound: Cn1c(Nc2ccc(C(F)(F)F)cc2)nc2cc(Oc3ccnc(-c4ncc(C(F)(F)F)[nH]4)c3)ccc21 [RAF265] + Nc1nc2[nH]cc(CCc3ccc(C(=O)N[C@@H](CCC(=O)O)C(=O)O)cc3)c2c(=O)[nH]1 [Pemetrexed] (partner 0.2 µM)
Procedure, shortened: as §1

Cell Line	relative viability (Doramapimod + Foretinib; first compound 0.02 µM)	relative viability (Doramapimod + Foretinib; first compound 0.06325 µM)	relative viability (Doramapimod + Foretinib; first compound 0.2 µM)	relative viability (Doramapimod + Foretinib; first compound 0.6325 µM)	relative viability (Doramapimod + Foretinib; first compound 2 µM)	relative viability (Doramapimod + Pemetrexed; first compound 0.02 µM)	relative viability (Doramapimod + Pemetrexed; first compound 0.06325 µM)	relative viability (Doramapimod + Pemetrexed; first compound 0.2 µM)	relative viability (Doramapimod + Pemetrexed; first compound 0.6325 µM)	relative viability (Doramapimod + Pemetrexed; first compound 2 µM)	relative viability (RAF265 + Dasatinib; first compound 0.01 µM)	relative viability (RAF265 + Dasatinib; first compound 0.03162 µM)	relative viability (RAF265 + Dasatinib; first compound 0.1 µM)	relative viability (RAF265 + Dasatinib; first compound 0.3162 µM)	relative viability (RAF265 + Dasatinib; first compound 1 µM)	relative viability (RAF265 + Pemetrexed; first compound 0.01 µM)	relative viability (RAF265 + Pemetrexed; first compound 0.03162 µM)	relative viability (RAF265 + Pemetrexed; first compound 0.1 µM)	relative viability (RAF265 + Pemetrexed; first compound 0.3162 µM)	relative viability (RAF265 + Pemetrexed; first compound 1 µM)
NCI-H3122	0.921	0.911	0.922	0.963	0.993	0.197	0.207	0.187	0.207	0.196	0.463	0.937	0.904	0.669	0.521	0.197	0.21	0.198	0.209	0.195
PC-3 [JPC-3]	1.14	1.11	1.15	1.23	1.1	1.27	1.37	1.24	0.933	1.03	0.985	0.908	1		0.696	1.17	1.11	1.24	0.42	0.621
PC-14	0.939	1.03	0.997	1.13	0.91	0.129	0.128	0.134	0.148	0.109	0.262	0.274	0.241		0.0905	0.115	0.138	0.144		0.158
RERF-LC-KJ	0.87	0.955	0.884	0.9	0.869	0.471	0.457	0.474	0.367	0.501	0.822	0.735	0.658	0.456	0.4	0.504	0.482	0.503	0.46	0.51
SK-LU-1	0.805	0.82	0.847	0.873	0.759	1	0.937	0.964	0.863	0.946	0.177	0.177	0.166	0.181	0.137	0.893	0.838	0.711	0.544	0.435
SK-MES-1	0.965	0.864	0.773	1.04	0.816	0.895	0.96	0.986	0.942	0.795	0.482	0.203	0.164	0.171	0.157	0.941	0.698	0.48	0.366	0.326
SW 900	0.557	0.933	0.877	1.11	0.892	0.513	0.513	0.478	0.502	0.479	0.595	0.548	0.552	0.297	0.272	0.486	0.512	0.512	0.488	0.254
SW 1573	0.862	0.769	0.749	0.836	0.663	0.772	0.794	0.773	0.938	0.721	0.54	0.442	0.31	0.29	0.21	0.872	0.833	0.753	0.6	0.634
